Measured values: patent publication US20130231472A1, “USE OF MOLECULAR MARKERS FOR THE PRECLINICAL PROFILING OF INHIBITORS OF ENZYMES HAVING HISTONE DEACETYLASE ACTIVITY” (priority 2002, published 2013)

Assays:
HDAC-2 [1] = assay: HDAC-2 protein levels in F9 teratocarcinoma cells (Westernblot); assay type: cell-based, murine
Method: (§1) FIG. 6: (A) F9 teratocarcinoma or HEK293T embryonic kidney cells were exposed for indicated times to 1 mM VPA. Protein levels of HDAC-2 and HDACs 1 or 3 for reference (HDAC8; N-CoR and Sin3 as data not shown) were determined by Westernblot analysis. […] (C) The effect of other HDAC inhibitors on the amount of HDAC-2 protein was determined by using TSA (100 nM) in a time course analysis in F9 cells (left panel). The HDAC inhibitors TSA (100 nM), trapoxin (TPX, 10 nM), butyrate (1.5 mM) or MS275 (5 μM) were tested at a single time of exposure in HEK293T cells (right panel).

HDAC-2 [2] = assay: HDAC-2 protein levels in K562 leukemia cells; assay type: cell-based, human
HDAC-2 mRNA = HDAC-2 mRNA levels in F9 cells (Northern blot); assay type: cell-based, murine; conditions: 1 mM VPA, FIG. 7
Method: FIG. 7: F9 cells or HEK 293T cells were treated for indicated times with 1 mM VPA and the levels of HDAC-2 mRNA were determined by Northern blot analysis from 5 μg polyA^+ RNA.

HDAC-3 = HDAC-3 protein levels (Westernblot, reference); assay type: cell-based; conditions: 1 mM VPA; FIG. 6A; in some experiments a transient induction
Method: as §1

HDAC-2 [3] = assay: HDAC-2 protein levels in HEK293T cells (Westernblot); assay type: cell-based, human
Method: as §1
FIG. 9: (A) HEK293T cells were treated for 24 h with VPA or left untreated. The cell penetrating protease inhibitors pepstatin A, leupeptin, or ALLM were added as indicated at the time of VPA addition. (B) Proteasome inhibitors ALLN or MG-132 were added at the indicated concentrations 4 h before cells were harvested. Protein levels of HDAC-2 were determined by Westernblot analysis.

[4] = test system: splenocytes from leukemic mice (>75% blasts); assay: Apoptosis of cultured leukemic splenocytes/APL blasts (propidium iodide staining); assay type: cell-based; conditions: VPA 1 mM, 48 hours, FIG. 3B
Method: FIG. 3: (A) Secondary acute promyelocytic leukemias were induced in mice as described above. Leukemic mice were then treated with placebo (Ctrl), or VPA (400 mg/kg every 12 hours). Mice were sacrificed 48 hours after beginning of treatments, and then leukemic spleens were fixed and either stained for histological examination (hematoxylin-eosyn, left panels), or analyzed for the presence of apoptotic cells (TUNEL assay, right panels). (B) Secondary leukemias were obtained as above. Mice were sacrificed when leukemic invasion of peripheral organs was >75% (spleen). Splenocytes from healthy mice (taken as control, left panel), or from leukemic mice (>75% blasts, right panel) were put in culture and then treated with VPA (1 mM) for 48 hours. At the end of the treatment, apoptosis was measured by propidium iodide staining. The sub-G1 area indicates the hypodiploid DNA peak corresponding to cells with fragmented DNA undergoing apoptosis.
FIG. 5: Leukemic blasts were obtained from spleens of secondary leukemic mice with a >75% invasion of tumor cells, as assessed by histological examination. Cells were put in culture and treated with VPA (1 mM) for 48 hours, in the absence or in the presence of the indicated TRAIL and/or caspase 8 inhibitors as indicated. At the end of the treatment, apoptosis was measured as described above.

TRAIL = TRAIL expression in Calu-3 cells (quantitative PCR); assay type: cell-based, human; conditions: VPA 1 mM, FIG. 4B
Method: FIG. 4: (A) Secondary acute promyelocytic leukemias were induced in mice as described above. Leukemic mice or healthy mice (Ctrl) were then treated with placebo (lanes 1, 3), VPA (400 mg/kg every 12 hours), all-trans retinoic acid (a 21-day-release pellet containing 5 mg RA or placebo: lanes 8-9), and VPA plus retinoic acid (lanes 10-11). Mice were sacrificed 18 hours (lanes 4-5), or 36 hours after beginning of treatment (lanes 3, 6-7, 10-11): total RNAs were collected from the spleens (with a >75% invasion of leukemic blasts as assessed by Giemsa staining) and analyzed by RNAse protection assay to check for expression of TRAIL. Faf and GAPDH were used as controls, not affected by these treatments. (B) Calu-3 cells (a human, non-small cell lung cancer derived cell line) were treated with VPA (1 mM) for the indicated times. RNA was extracted and analyzed by quantitative PCR (Perkin-Elmer), using primers specific for TRAIL. GAPDH was used to normalize.

HDAC-1 = HDAC-1 protein levels (Westernblot, reference); assay type: cell-based; conditions: 1 mM VPA; FIG. 6A; in some experiments a transient induction
Method: as §1

[5] = test system: acute promyelocytic leukemia mice; assay: Secondary acute promyelocytic leukemia mouse model: survival and splenomegaly; assay type: in vivo
Excerpt: FIG. 1: (A) Secondary acute promyelocytic leukemias were induced in mice. In brief, primary leukemias were induced in mice by injecting PMURAR expressing bone marrow cells into the tail veins. Mice with overt leukemias were euthanized, and leukemic cells were harvested from the spleen. Leukemic cells were re-injected i.v. (1×10^7 cells/mouse) in non-irradiated, syngeneic recipient mice. The secondary recipient mice developed overt leukemia in about 2-3 weeks. Leukemic mice or healthy mice (Ctrl) were then treated with placebo (lanes 1, 3), or VPA (400 mg/kg every 12 hours) for two consecutive weeks. (B) Leukemic mice were treated with placebo (lower, Ctrl) or VPA (400 mg/kg every twelve hours, upper) for one week. At the end of the treatment, mice were sacrificed, and spleens were photographed.

HDAC-2 [6] = assay: HDAC-2 pulse labeling and pulse-chase analysis in F9 cells; assay type: cell-based, murine; conditions: 1 mM VPA pretreatment 24 h
Method: FIG. 8: Synthesis and degradation rate of HDAC-2 were analyzed by pulse metabolic labeling with ^35S-methionine and pulse-chase analyses. ^35S-labelled HDAC-2 was detected by HDAC-2 specific immune precipitation followed by SDS-PAGE separation and autoradiography. (A) Pulse labeling for 1 h was performed in F9 and HEK293T cells which had been left untreated or were pretreated with 1 mM VPA for 24 h. (B) For pulse chase analysis cells were left untreated or pretreated for 24 h with 1 mM VPA and labeled with ^35S-methionine for an additional hour in the absence or presence of VPA. After removal of ^35S-methionine and addition of non-labeled methionine the elimination of radiolabeled HDAC-2 was followed over a period of 6 h. A pulse chase analysis was also performed in HEK293T cells without VPA pretreatment and addition of VPA (indicated by the (+) row) only at the time when the chase period was started. From HEK293T cell extracts also HDAC-3 was precipitated for reference.

SMILES: CCCC(CCC)C(=O)O [VPA, Valproic acid]
- HDAC-2 protein levels relative to untreated cells (HDAC-2 [1]; 1 mM VPA, 24 h, persists up to 48 h, FIG. 6A (F9 and HEK293T, cell line not given)): about 30%
- HDAC-2 protein levels (HDAC-2 [1]; F9 cells, VPA 1 mM, TSA 100 nM up to 48 h): reduced
- HDAC-2 protein levels (HDAC-2 [2]): reduced
- HDAC-2 mRNA levels (HDAC-2 mRNA): no response of HDAC-2 mRNA levels
- HDAC-3 protein levels (HDAC-3): not reduced
- HDAC-2 protein levels (HDAC-2 [3]; HEK293T cells, VPA 1 mM, TSA 100 nM, trapoxin 10 nM, butyrate 1.5 mM, MS275 5 μM): reduced
- HDAC-2 protein levels at higher doses (HDAC-2 [3]; HEK 293T, VPA concentrations increased up to 5 or 10 mM, 36 h, FIG. 6B): slightly more pronounced reduction
- apoptosis (propidium iodide, sub-G1) [4]: induces massive apoptosis of leukemic cells
- TRAIL expression (quantitative PCR, normalized to GAPDH) (TRAIL): strongly induced
- HDAC-1 protein levels (HDAC-1): not reduced
- survival of leukemic mice ([5]; VPA 400 mg/kg every 12 hours for two consecutive weeks vs placebo, P<0.01, FIG. 1A): extended survival of leukemic mice in a statistically significant way
- splenomegaly caused by blast infiltration ([5]; VPA 400 mg/kg every twelve hours for one week vs placebo, FIG. 1B): dramatic reduction in the splenomegaly
- HDAC-2 synthesis rate (35S-methionine pulse labeling) (HDAC-2 [6]; FIG. 8A): No substantial difference in HDAC-2 synthesis rate
- half-life of HDAC-2 (pulse-chase) (HDAC-2 [6]; FIG. 8B): substantially decreased
